The values that follow come from PubChem BioAssay AID1033 (Sanford-Burnham Center for Chemical Genomics, 2008).

Activity calls are given as the source filed them. How the calls were made is not given here. Where only a bound is given, the exact number is not on record here.

Sequence of Chaperone protein DnaK (Escherichia coli (strain K12)) (P0A6Y8 whole entry, looked up, the tested form may be a part): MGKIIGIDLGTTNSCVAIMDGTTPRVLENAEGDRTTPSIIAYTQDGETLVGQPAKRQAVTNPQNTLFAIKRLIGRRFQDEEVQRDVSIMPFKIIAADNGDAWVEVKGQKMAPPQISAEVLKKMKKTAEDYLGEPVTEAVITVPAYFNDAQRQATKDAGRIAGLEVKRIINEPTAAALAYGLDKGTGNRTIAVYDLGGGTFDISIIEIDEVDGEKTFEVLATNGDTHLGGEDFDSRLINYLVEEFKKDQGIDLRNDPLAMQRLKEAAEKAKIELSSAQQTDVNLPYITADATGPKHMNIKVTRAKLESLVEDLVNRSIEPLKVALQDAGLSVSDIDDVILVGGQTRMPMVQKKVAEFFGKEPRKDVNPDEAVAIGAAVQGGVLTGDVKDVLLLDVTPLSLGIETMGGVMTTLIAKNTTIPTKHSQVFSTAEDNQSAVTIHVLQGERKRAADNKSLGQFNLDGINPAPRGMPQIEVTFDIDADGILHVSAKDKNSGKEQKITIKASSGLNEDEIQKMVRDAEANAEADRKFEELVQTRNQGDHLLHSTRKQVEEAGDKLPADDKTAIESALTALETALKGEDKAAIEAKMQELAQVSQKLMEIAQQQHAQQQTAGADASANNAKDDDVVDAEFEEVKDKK

This experiment has as its target Chaperone protein DnaK (Escherichia coli (strain K12)) (UniProt P0A6Y8). Description: binders of DnaK substrate-binding domain, biophysical, NMR, chaperone (AID 1033). Conditions: Purified DnaK SBD, NMR ligand binding.
For the molecule `C=C1C([C@]2(C)C(CC(=O)OC)[C@@](C)(COC(C)=O)OC(=O)C[C@@H]2OC(C)=O)[C@@H](OC=O)[C@H](OC(=O)C(O)C(C)CC)[C@@]2(C)[C@H](c3ccoc3)CC(=O)C12O` (stereo not given in full), the Kd is > 4 mM (inactive).
With `CC1CCC(N2CCN(c3ncccn3)CC2)CC1` (stereo not given), the Kd was > 4 mM (inactive).
On to `O=C(NCc1cccs1)c1nn2cccnc2c1Cl`, for which the Kd was > 4 mM (inactive).
Take `O=C(O)c1coc2c1C(=O)CCC2`: the Kd was > 4 mM (inactive).
For `O=[n+]1c2c(n([O-])c3ccccc31)CCCC2`, the Kd was > 4 mM (inactive).
Turning to `O=C(O)C1CCN(S(=O)(=O)c2cccs2)CC1`, the Kd is > 4 mM (inactive).
Take `Cc1onc(-c2ccccc2)c1C(=O)O`: the Kd was > 4 mM (inactive).
For `NC(=O)c1cc(N)cc(C(N)=O)c1`, the Kd was > 4 mM (inactive).
As to `COc1ccc(-c2c(C)n([O-])c(C)c(C)[n+]2=O)cc1`, the Kd was > 4 mM (inactive).
Turning to `Cc1cc(=O)n(CCc2ccccc2)c(O)c1C#N`, the Kd is > 4 mM (inactive).
For the molecule `Cc1c(C(=O)NCc2ccccn2)oc2ccccc12`, the Kd is > 4 mM (inactive).
Consider `N=c1n(N)c2ccccc2n1CCO`, for which the Kd was > 4 mM (inactive).
Turning to `O=c1c2ccccc2ncn1C1CCCCC1`, the Kd was > 4 mM (inactive).
Under `COc1ccc(C(=O)NCC(=O)O)cc1` stands > 4 mM (inactive); under `O=C1CS/C(=N/S(=O)(=O)c2ccccc2)N1`, > 4 mM (inactive); under `Nc1nc2[nH]c(=O)c(=O)[nH]c2c(=O)[nH]1`, > 4 mM (inactive).
`O=C1CCCN1C(=O)CN1CCOCC1`: the Kd was > 4 mM (inactive).
For `NC(N)=NCCCCN=C(N)N`, the Kd is > 4 mM (inactive).
Consider `C[C@@H]1CC[C@@]23CCC4(C)[C@@](C=CC5[C@@]6(C)CC[C@H](O)C(C)(C)C6CC[C@]54C)(OC2=O)C3[C@H]1C` (stereo not given in full), for which the Kd was > 4 mM (inactive).
On to `CC1(C(=O)O)CC2C=CC1C2` (stereo not given), for which the Kd was > 4 mM (inactive).
On to `COc1ccc(CC(=O)c2ccc(O)cc2O)cc1`, for which the Kd is > 4 mM (inactive).
As to `C[C@@H]1O[C@@H](O[C@H]2CC[C@]3(C=O)C4CC[C@]5(C)[C@@H](C6=CC(=O)OC6)CC[C@]5(O)C4CC[C@]3(O)C2)[C@H](O)[C@H](O)[C@H]1O` (stereo not given in full), the Kd was > 4 mM (inactive).
As for `Cc1ccccc1NC(=O)CSc1ccnc(=O)[nH]1`, the Kd is > 4 mM (inactive).
Consider `CC1(C)SCC(C(=O)O)N1C=O` (stereo not given), for which the Kd is > 4 mM (inactive).
As for `Cc1ncc(C[n+]2csc3ccccc32)c(N)n1`, the Kd is > 4 mM (inactive).
On to `O=C(O)C1CC(=O)N(Cc2ccc(F)cc2)C1` (stereo not given), for which the Kd is > 4 mM (inactive).
Turning to `c1coc(CNc2nc(-c3ccncc3)cs2)c1`, the Kd was > 4 mM (inactive).
Turning to `O=C1CNC(=O)N1Cc1ccc(F)cc1`, the Kd was > 4 mM (inactive).
Turning to `Nc1ccccc1-n1cccn1`, the Kd was > 4 mM (inactive).
Consider `NCc1csc2ccccc12`, for which the Kd was > 4 mM (inactive).
On to `OCc1ccccc1N1CCOCC1`, for which the Kd was > 4 mM (inactive).
The same measure for `O=C(NC1=NCCS1)c1ccc2snnc2c1`: > 4 mM (inactive).
Regarding `NC(=S)CN1CCCC1=O`, the Kd is > 4 mM (inactive).
Under `O=C1CCCc2c1nc(-c1ccccc1)n2O` stands > 4 mM (inactive); under `S=c1nc(Cc2ccccc2)[nH][nH]1`, > 4 mM (inactive).
Turning to `Nc1ncnc(Nc2ccccc2C(F)(F)F)n1`, the Kd was > 4 mM (inactive).
With `Nc1nc(-c2ccccc2)cc(=O)[nH]1`, the Kd is > 4 mM (inactive).
For the molecule `O=C(Nc1cccnc1)Nc1ccc2c(c1)OCO2`, the Kd was > 4 mM (inactive).
With `Cc1cc(C(=O)NC(C)c2ccncc2)no1` (stereo not given), the Kd is > 4 mM (inactive).
`CSc1nnc(CN2CCSCC2)n1C`: the Kd is > 4 mM (inactive).
Under `NC(=S)N1CCC(c2ccccc2)=N1` stands > 4 mM (inactive).
The same measure for `Cn1nnc2cc(CO)ccc21`: > 4 mM (inactive); for `Cc1cc(N)n(C2CCOC(C)(C)C2)n1` (stereo not given): > 4 mM (inactive); for `O=C1CCC(=O)N1CNc1ccccc1`: > 4 mM (inactive).
Turning to `CC(=O)O[C@H]1CC[C@@]2(C)C(CC[C@]3(C)C2C(=O)C=C2C4[C@@H](C)[C@H](C)CC[C@]4(C(=O)O)CC[C@]23C)C1(C)C` (stereo not given in full), the Kd was > 4 mM (inactive).
On to `Nc1csc(C(=O)O)c1`, for which the Kd is > 4 mM (inactive).
With `O=C(O)CCCNC(=O)c1ccccc1C(=O)O`, the Kd is > 4 mM (inactive).
On to `Cc1cc(NC(=O)NCCCSc2nncn2C)no1`, for which the Kd was > 4 mM (inactive).
Take `CC1(C)C2CC(=O)[C@]3(C)C(CC[C@@]4(C)[C@H](c5ccoc5)OC(=O)[C@H]5O[C@]543)[C@@]2(C)C=C[C@@H]1O` (stereo not given in full): the Kd is > 4 mM (inactive).
Take `COC(=O)Cc1cc(=O)n(-c2nc3ccccc3s2)[nH]1`: the Kd was > 4 mM (inactive).
Take `Cc1ccc(C)n1NC(=O)c1ccco1`: the Kd was > 4 mM (inactive).
For `O=C(O)C1CSC(c2ccc(Cl)cc2)N1` (stereo not given), the Kd was > 4 mM (inactive).
Under `COc1cc2nc(-c3cccs3)oc(=O)c2cc1OC` stands > 4 mM (inactive); under `COc1cc2c(cc1OC)[C@@H]1C(=O)c3ccc4c(c3O[C@@H]1CO2)CC(C(C)C)O4` (stereo not given in full), > 4 mM (inactive).
In the case of `O=C1CCC(c2cccs2)=NN1`, the Kd was > 4 mM (inactive).
Under `Cn1c(CSc2nc3ccccc3s2)n[nH]c1=S` stands > 4 mM (inactive); under `CCNC(=S)Nc1c(C)n(C)n(-c2ccccc2)c1=O`, > 4 mM (inactive).
Under `O=C(O)CCCc1nc2ccccc2s1` stands > 4 mM (inactive).
Regarding `O=C(c1cc(-c2ccccc2)on1)N1CCCC1`, the Kd was > 4 mM (inactive).
For `Nc1c(S(=O)(=O)c2ccccc2)csc1C(=O)O`, the Kd was > 4 mM (inactive).
The same measure for `O=C(O)c1ncoc1-c1ccccc1`: > 4 mM (inactive); for `CC[C@H](CCC(C)[C@H]1CCC2C3CCC4C[C@@H](O)CC[C@]4(C)C3CC[C@@]21C)C(C)C` (stereo not given in full): > 4 mM (inactive); for `O=S(=O)(c1cccc2cccnc12)N1CCOCC1`: > 4 mM (inactive).
Regarding `CC1(C)C2CC[C@]3(C)C(C(=O)C=C4[C@H]5C[C@@](C)(C(=O)O)CC[C@]5(C)CC[C@]43C)[C@@]2(C)CC[C@@H]1O` (stereo not given in full), the Kd was > 4 mM (inactive).
Regarding `Cn1ncc(N2CCOCC2)c(Cl)c1=O`, the Kd was > 4 mM (inactive).
`CCOc1cccc(C(=O)c2ccc(O)c(O)c2O)c1`: the Kd was > 4 mM (inactive).
For `NC(CC(=O)O)C(=O)Nc1ccc(Cl)cc1` (stereo not given), the Kd is > 4 mM (inactive).
In the case of `COc1cc(-c2coc3cc(O[C@@H]4O[C@H](CO)[C@@H](O)[C@H](O)[C@H]4O)c(OC)c(O)c3c2=O)cc(O)c1OC`, the Kd was > 4 mM (inactive).
Turning to `O=C(Nc1c[nH]c(=O)[nH]c1=O)c1ccccc1F`, the Kd is > 4 mM (inactive).
Turning to `CC(=O)c1ccc2c(c1)OCCO2`, the Kd was > 4 mM (inactive).
